According to doi:10.1101/2021.01.25.428124v1 (biorxiv, 2021):

target: Methyl-coenzyme M reductase (MCR-I), Ni(I)-MCRred1 (Methanothermobacter marburgensis, UniProt P11558+P11560+P11562); assay: biochemical; assay type: binding
Sequence (P11558 2-550 limits assumed): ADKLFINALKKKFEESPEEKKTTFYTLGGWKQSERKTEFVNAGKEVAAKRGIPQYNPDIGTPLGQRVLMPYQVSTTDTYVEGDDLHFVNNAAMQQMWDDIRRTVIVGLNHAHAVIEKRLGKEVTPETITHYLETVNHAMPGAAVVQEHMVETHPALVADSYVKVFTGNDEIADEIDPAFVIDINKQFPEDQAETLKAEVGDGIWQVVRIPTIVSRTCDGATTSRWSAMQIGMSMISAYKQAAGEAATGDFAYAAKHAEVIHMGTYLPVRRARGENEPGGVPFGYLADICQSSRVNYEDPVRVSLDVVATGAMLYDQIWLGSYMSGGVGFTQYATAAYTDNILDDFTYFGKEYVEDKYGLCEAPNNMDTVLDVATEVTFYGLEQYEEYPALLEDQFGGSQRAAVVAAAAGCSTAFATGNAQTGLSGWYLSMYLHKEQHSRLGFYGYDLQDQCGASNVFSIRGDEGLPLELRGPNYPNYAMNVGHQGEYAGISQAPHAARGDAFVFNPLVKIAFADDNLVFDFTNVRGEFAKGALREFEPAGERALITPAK
Sequence (P11560 2-443 limits assumed): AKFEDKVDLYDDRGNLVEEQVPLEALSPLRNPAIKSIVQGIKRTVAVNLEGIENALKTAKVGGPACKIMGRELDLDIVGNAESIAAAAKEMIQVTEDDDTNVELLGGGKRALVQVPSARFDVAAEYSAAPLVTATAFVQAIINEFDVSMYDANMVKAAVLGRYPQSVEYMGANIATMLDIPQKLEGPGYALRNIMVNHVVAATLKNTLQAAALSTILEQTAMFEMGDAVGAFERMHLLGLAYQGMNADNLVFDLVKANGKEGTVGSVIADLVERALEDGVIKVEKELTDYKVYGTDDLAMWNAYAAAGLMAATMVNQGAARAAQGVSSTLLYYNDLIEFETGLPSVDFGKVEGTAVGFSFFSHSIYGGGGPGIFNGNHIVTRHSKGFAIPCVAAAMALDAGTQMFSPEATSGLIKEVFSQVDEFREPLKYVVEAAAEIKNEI
Sequence (P11562 2-249 limits assumed): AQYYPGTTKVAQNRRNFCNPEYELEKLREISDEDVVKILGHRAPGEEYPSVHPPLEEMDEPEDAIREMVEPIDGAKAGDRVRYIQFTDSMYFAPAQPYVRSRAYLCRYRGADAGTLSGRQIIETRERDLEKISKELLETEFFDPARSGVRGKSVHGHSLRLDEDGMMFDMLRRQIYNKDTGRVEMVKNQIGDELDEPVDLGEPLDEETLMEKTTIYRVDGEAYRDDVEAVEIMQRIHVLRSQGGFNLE

Question: With CCCCS(=O)(=O)O [But-SO3] as the compound, how does the Kd read?
Answer: 3300 ± 600 µM

Question: C[C@@H](OP(=O)(O)O)[C@H](NC(=O)CCCCCSSCCS(=O)(=O)O)C(=O)O [CoMSSCoB6] was tested. Which Kd did it give?
Answer: 105 ± 10.9 µM

Question: For CSCCS(=O)(=O)O [methyl-SCoM, S-methyl-2-mercaptoethane sulfonate], which Kd is on record?
Answer: 27.5 ± 7.3 µM

Question: Which Kd does the source give for C[C@@H](OP(=O)(O)O)[C@H](NC(=O)CCCCCCSSCCS(=O)(=O)O)C(=O)O [CoMSSCoB] here?
Answer: 57.4 ± 5.4 µM
